The numbers were not newly measured in CN106749267A, “新的表皮生长因子受体抑制剂及其应用” (Nanjing Sanhome Pharmaceutical Co Ltd, priority 2015, dated 2017), which cites them from elsewhere.

Where two headings read alike, the source gives them in different places.

For `C=CC(=O)Nc1cccc(Nc2nc(Nc3ccc(N4CCN(C(C)=O)CC4)cc3OC)ncc2C(F)(F)F)c1` [Rociletinib], for the setting “literature report, hyperglycemia from EGFR TKIs”, the “blood glucose increase side effect” value is recorded as “一定程度的升高”.
For `C=CC(=O)Nc1cc(Nc2nccc(-c3cn(C)c4ccccc34)n2)c(OC)cc1N(C)CCN(C)C` [AZD9291], the “blood glucose increase side effect” value (in vivo) was “一定程度的升高”.
